Laboratory results reported in ChEMBL document CHEMBL1148056, “Four new dimeric peptide alkaloids, anchinopeptolides B-D, and cycloanchinopeptolide C, congeners of anchinopeptolide A, from the Mediterranean marine sponge Anchinoe tenacior” (J Nat Prod, 1994).

Experiments:
[1] = target: B2 bradykinin receptor (Homo sapiens) (UniProt P30411); assay: Displacement of [3H]bradykinin from human B2 bradykinin receptor expressed in SF21 cells at 5 ug/ml
Rattus norvegicus [2] = species: Rattus norvegicus; assay: Displacement of [3H]NPY from rat neuropeptide Y receptor at 5 ug/ml
Rattus norvegicus [3] = species: Rattus norvegicus; assay: Displacement of [125I]somatostatin from rat somatostatin receptor at 5 ug/ml

Sequence of B2 bradykinin receptor (Homo sapiens) (P30411 whole entry, looked up): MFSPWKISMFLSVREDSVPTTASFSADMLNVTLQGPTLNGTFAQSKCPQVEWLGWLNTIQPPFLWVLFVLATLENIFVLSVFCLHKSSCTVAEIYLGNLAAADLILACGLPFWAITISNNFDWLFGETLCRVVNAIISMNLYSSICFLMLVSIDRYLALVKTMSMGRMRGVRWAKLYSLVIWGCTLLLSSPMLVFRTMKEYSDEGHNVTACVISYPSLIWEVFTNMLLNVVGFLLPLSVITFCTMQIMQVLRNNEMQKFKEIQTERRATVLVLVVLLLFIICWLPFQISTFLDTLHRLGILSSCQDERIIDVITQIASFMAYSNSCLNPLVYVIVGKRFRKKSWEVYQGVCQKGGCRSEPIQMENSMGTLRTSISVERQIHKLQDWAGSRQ

SMILES | Activity [1] [%] | Activity (Rattus norvegicus [2]) [%] | Activity (Rattus norvegicus [3]) [%]
C[C@@H](C(=O)N/C=C/c1ccc(O)cc1)N1C(=O)[C@](O)(CCCNC(=N)N)[C@@H](CCNC(=N)N)[C@]1(O)C(=O)NCC(=O)N/C=C/c1ccc(O)cc1 | 71 | 80 | 
C[C@H](NC(=O)[C@@]1(O)[C@H](CCNC(=N)N)[C@@](O)(CCCNC(=N)N)C(=O)N1CC(=O)N/C=C/c1ccc(O)cc1)C(=O)N/C=C/c1ccc(O)cc1 | 52 | 57 | 62
N=C(N)NCCC[C@@]1(O)C(=O)N(CC(=O)N/C=C/c2ccc(O)cc2)[C@@](O)(C(=O)NCC(=O)N/C=C/c2ccc(O)cc2)[C@@H]1CCNC(=N)N |  |  | 77
C[C@H](NC(=O)[C@@]1(O)[C@H](CCNC(=N)N)[C@@](O)(CCCNC(=N)N)C(=O)N1[C@@H](C)C(=O)N/C=C/c1ccc(O)cc1)C(=O)N/C=C/c1ccc(O)cc1 | 35 | 35 | 35
